Laboratory results as given in patent publication US20250295620A1, “PHARMACEUTICAL COMPOSITION FOR TREATMENT OF HEART FAILURE WITH DIASTOLIC DYSFUNCTION” (NATIONAL UNIVERSITY CORPORATION TOKAI NATIONAL HIGHER …, priority 2022, published 2025).

Columns and labels:
[1] = test system: HFpEF patients; settings: clinical studies, Anker S et al., N Engl J Med 2021; cited from earlier work
[2] = test system: HFpEF model mice; assay: Pressure-volume loop analysis with conductance catheter in HFpEF model mice, Example 2; type: in vivo; settings: Example 2, FIG. 8; tamibarotene 3 mg/kg, peretinoin 10 mg/kg, oral gavage once a day, five weeks
Description: (§1) HFpEF model mice are generated by the method reported by Schiattarella et al. (Nature. 568 (7752): 351-356. 2019). Specifically, male mice at an age of 8 to 10 weeks are given High Fat Diet (Rodent Diet with 60% kcal % fat, D12492, Research Diets Inc.) and drinking water containing a dissolved nitric oxide synthase inhibitor (No-nitro-L-arginine methyl ester hydrochloride (L-NAME), N5751, Sigma) (at a concentration of 0.5 g/L), and kept for five weeks. Various measurements are performed to confirm the establishment of an HFpEF model.
(§2) The following drugs are administered to mouse groups while mice are continued to be given the high-fat diet and the drinking water containing the dissolved nitric oxide synthase inhibitor. AM80 (Cat. No. 3507, TOCRIS) is orally administered to tamibarotene administration group via oral gavage at a single dose of 3 mg/kg once a day. Peretinoin (Cat. No. HY-100008, MedChemExpress) is orally administered to peretinoin administration group via oral gavage at a single dose of 10 mg/kg once a day. DMSO as a vehicle is orally administered to control group via oral gavage once a day. Administration is continued for five weeks, and various measurements are performed five weeks after the initial drug administration. […]

[3] = test system: HFpEF model mice; assay: Transthoracic echocardiography in HFpEF model mice, Example 1; type: in vivo; settings: tamibarotene 3 mg/kg, peretinoin 0.3 mg/body, oral gavage once a day, five weeks; for left ventricular ejection fraction before and after drug administration: Example 1, FIG. 2; for E/e′ ratio after completion of drug administration compared with before start: Example 1, FIG. 3
Description: as §1
(§3) The following drugs are administered to mouse groups while mice are continued to be given the high-fat diet and the drinking water containing the dissolved nitric oxide synthase inhibitor. AM80 (Cat. No. 3507, TOCRIS) is orally administered to tamibarotene administration group via oral gavage at a single dose of 3 mg/kg once a day. Peretinoin (Cat. No. HY-100008, MedChemExpress) is orally administered to peretinoin administration group via oral gavage at a single dose of 0.3 mg/body once a day. DMSO as a vehicle is orally administered to control group via oral gavage once a day. Administration is continued for five weeks, and various measurements are performed five weeks after the initial drug administration.
(§4) Transthoracic echocardiography is performed on mice under inhalational anesthesia with isoflurane. Transmitral flow velocity pattern (TMF) is measured by pulsed Doppler echocardiography using vevo 3100 (FUJIFILM VisualSonics) equipped with a 30 MHz probe for small animals (MX-400) to determine the early diastolic inflow velocity pattern (E-wave). Early diastolic mitral annular velocity (e′) is measured by tissue Doppler echocardiography. The transmitral E velocity is divided by the e′ velocity to calculate an E/e′ ratio. LV end-systolic diameter and LV end-diastolic diameter are measured by M-mode echocardiography to calculated an LV ejection fraction (EF %).

[4] = test system: HFpEF model mice; assay: Transthoracic echocardiography in HFpEF model mice, Example 2; type: in vivo; settings: tamibarotene 3 mg/kg, peretinoin 10 mg/kg, oral gavage once a day, five weeks; for left ventricular ejection fraction before and after drug administration: Example 2, FIG. 6; for E/e′ ratio after completion of drug administration compared with before start: Example 2, FIG. 7
Description: as §1
(§5) The following drugs are administered to mouse groups while mice are continued to be given the high-fat diet and the drinking water containing the dissolved nitric oxide synthase inhibitor. AM80 (Cat. No. 3507, TOCRIS) is orally administered to tamibarotene administration group via oral gavage at a single dose of 3 mg/kg once a day. Peretinoin (Cat. No. HY-100008, MedChemExpress) is orally administered to peretinoin administration group via oral gavage at a single dose of 10 mg/kg once a day. DMSO as a vehicle is orally administered to control group via oral gavage once a day. Administration is continued for five weeks, and various measurements are performed five weeks after the initial drug administration.
as §4

[5] = test system: HFpEF model mice; assay: Pressure-volume loop analysis with conductance catheter in HFpEF model mice, Example 1; type: in vivo; settings: Example 1, FIG. 4; tamibarotene 3 mg/kg, peretinoin 0.3 mg/body, oral gavage once a day, five weeks
Description: as §1
as §3, with “administration. […]” for “administration.”

[6] = test system: HFpEF model mice; assay: Masson's trichrome staining of heart tissue of HFpEF model mice, Example 2; type: in vivo; settings: Example 2, FIG. 9; tamibarotene 3 mg/kg, peretinoin 10 mg/kg, oral gavage once a day, five weeks; 400-fold
Description: as §1
as §2, with “day.” for “day. Administration is continued for five weeks, and various measurements are performed five weeks after the initial drug administration.”
Tissue specimens are prepared from the harvested heart, and stained with Masson's trichrome staining. The tissue fibrosis is photographed, and the images are analyzed using Image J for assessment.

[7] = test system: HFpEF model mice; assay: Heart weight/tibia length measurement in HFpEF model mice, Example 2; type: in vivo; settings: Example 2, FIG. 5; tamibarotene 3 mg/kg, peretinoin 10 mg/kg, oral gavage once a day, five weeks; compared among groups incl. DMSO control
Description: as §1, §5
Mice are euthanized after the catheterization, and the heart is harvested for weight measurement. […]

[8] = test system: HFpEF model mice; assay: Diastolic function of HFpEF model mice, overall conclusion from Examples 1 and 2; type: in vivo; settings: summary of Examples 1 and 2
Description: as §1
The following drugs are administered to mouse groups while mice are continued to be given the high-fat diet and the drinking water containing the dissolved nitric oxide synthase inhibitor. […]
as §4, with “The transmitral E velocity is divided by the e′ velocity to calculate an E/e′ ratio.” left out, “%). […]” for “%).”

Compound | efficacy for HFpEF patients [1] | stiffness constant β compared with control group [2] | left ventricular ejection fraction before and after drug administration [3] | E/e′ ratio after completion of drug administration compared with before start [3] | left ventricular ejection fraction before and after drug administration [4] | E/e′ ratio after completion of drug administration compared with before start [4] | stiffness constant β compared with control group [5] | tissue fibrosis (fibrosis area, high-power field) compared with control group [6] | heart weight/tibia length ratio after completion of drug administration [7] | effect on the diastolic function of the HFpEF model mice [8]
OC[C@H]1O[C@@H](c2ccc(Cl)c(Cc3ccc(O[C@H]4CCOC4)cc3)c2)[C@H](O)[C@@H](O)[C@@H]1O [Empagliflozin] | effective |  |  |  |  |  |  |  |  | 
CC(C)=CCC/C(C)=C/CC/C(C)=C/C=C/C(C)=C/C(=O)O [peretinoin] |  | significantly reduced | no difference | significantly reduced | no difference | significantly reduced | reduced | significantly reduced | no significant difference | improving effect
CC1(C)CCC(C)(C)c2cc(NC(=O)c3ccc(C(=O)O)cc3)ccc21 [tamibarotene] |  | significantly reduced | no difference | significantly reduced | no difference | significantly reduced | reduced | significantly reduced | no significant difference | improving effect
